Data: patent US11351095B2, “Stabilized emulsions with acidic agents” (Avon Products, Inc., priority 2018, dated 2022)

Assay: First normal stress difference of glycerin phases (AR-G2 rheometer)
Type: physicochemical
Description: The first normal stress difference of several glycerin phases (“Phase”) was measured prior to emulsification. A TA Instruments AR-G2 Rheometer was used to perform viscosity measurements for each of the phases A-E and a 100% glycerin phase using a 2 degree cone and plate geometry and a 52 micron gap. Measurements were taken at a shear stress of 100 Pa and 25° C. (77° F.).

First Normal Stress Difference (N1 = 2 × Je × η^2 × γ^2, Pa) (glycerin phase prior to emulsification, shear stress of 100 Pa and 25° C., 2 degree cone and plate, 52 micron gap): 0 Pa
extensional viscosity (inferred from first normal stress difference): no extensional viscosity
Compound: OCC(O)CO [Glycerin (100%), Glycerin]
